Experiment [1] concerns the target T1, Protein kinase C epsilon type (Homo sapiens) (UniProt Q02156).
T1 sequence (whole entry): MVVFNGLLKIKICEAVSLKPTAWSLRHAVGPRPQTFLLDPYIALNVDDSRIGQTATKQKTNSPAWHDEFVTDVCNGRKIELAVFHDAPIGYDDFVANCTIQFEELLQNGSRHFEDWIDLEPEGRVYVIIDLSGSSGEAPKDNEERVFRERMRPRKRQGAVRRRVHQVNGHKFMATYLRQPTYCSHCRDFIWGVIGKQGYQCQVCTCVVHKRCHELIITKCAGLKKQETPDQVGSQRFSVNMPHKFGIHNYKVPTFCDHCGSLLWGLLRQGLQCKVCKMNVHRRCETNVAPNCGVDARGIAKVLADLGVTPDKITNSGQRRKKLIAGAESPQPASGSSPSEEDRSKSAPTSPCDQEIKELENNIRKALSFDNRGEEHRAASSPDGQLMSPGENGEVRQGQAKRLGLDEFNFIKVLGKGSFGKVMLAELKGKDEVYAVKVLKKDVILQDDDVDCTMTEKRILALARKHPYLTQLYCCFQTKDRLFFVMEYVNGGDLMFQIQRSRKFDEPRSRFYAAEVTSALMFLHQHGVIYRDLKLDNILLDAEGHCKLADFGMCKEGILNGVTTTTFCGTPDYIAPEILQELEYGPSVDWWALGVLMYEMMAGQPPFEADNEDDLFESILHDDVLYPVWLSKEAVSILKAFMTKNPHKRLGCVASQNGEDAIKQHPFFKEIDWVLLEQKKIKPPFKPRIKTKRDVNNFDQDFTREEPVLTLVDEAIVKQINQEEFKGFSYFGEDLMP
As to the kind of experiment: Selectivity interaction (Upstate Kinase Profiler service (Millipore)) EUB0000056c PRKCE. The settings on record: at 1 µM.

Experiment [2] deals with Protein kinase C alpha type (Homo sapiens, UniProt P17252). As to the kind of experiment: Selectivity interaction (Upstate Kinase Profiler service (Millipore)) EUB0000056c PRKCA. To be noted: at 1 µM.
Experiment [3] deals with SRSF protein kinase 2 (Homo sapiens) (UniProt P78362). To be noted: at 10 µM.
Experiment [4] addresses Death-associated protein kinase 1 (Homo sapiens, UniProt P53355). As to the kind of experiment: Selectivity interaction (Ambit KINOMEscan and KiNATiv profiling in Jurkat cells) EUB0000090b DAPK1. To be noted: at 1 µM. The experiment is classed as cell-based.
Experiment [5] concerns the target Ribosomal protein S6 kinase alpha-5 (Homo sapiens) (UniProt O75582). Kind of experiment: Selectivity interaction (Ambit KINOMEscan and KiNATiv profiling in Jurkat cells) EUB0000090b RPS6KA5. To be noted: at 1 µM. The experiment is classed as cell-based.
Experiment [6] has as its target Cyclin-dependent kinase 8 (Homo sapiens, UniProt P49336). Kind of experiment: Selectivity interaction (KinomeScan (DiscoverX)) EUB0001049a CDK8. The settings on record: at 1 µM.
For experiment [7], the target named is T2, Serine/threonine-protein kinase ULK3 (Homo sapiens) (UniProt Q6PHR2).
T2 sequence (whole entry): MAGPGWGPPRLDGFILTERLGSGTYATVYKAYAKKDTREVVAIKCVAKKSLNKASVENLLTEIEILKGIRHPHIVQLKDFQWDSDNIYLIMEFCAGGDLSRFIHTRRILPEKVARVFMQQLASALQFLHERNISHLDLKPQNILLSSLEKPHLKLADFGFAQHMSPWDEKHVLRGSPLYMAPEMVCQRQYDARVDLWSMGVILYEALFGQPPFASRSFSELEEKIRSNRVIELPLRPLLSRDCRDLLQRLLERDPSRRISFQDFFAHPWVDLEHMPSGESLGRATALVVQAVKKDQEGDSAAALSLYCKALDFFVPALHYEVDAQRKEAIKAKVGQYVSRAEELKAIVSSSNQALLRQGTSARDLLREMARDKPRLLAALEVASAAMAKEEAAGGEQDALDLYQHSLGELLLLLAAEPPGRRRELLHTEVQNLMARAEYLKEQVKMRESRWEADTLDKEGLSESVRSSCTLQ
Kind of experiment: Selectivity interaction (KinomeScan (DiscoverX)) EUB0000695a ULK3. The settings on record: at 100 nM.

Experiment [8] has as its target Protein kinase C beta type (Homo sapiens, UniProt P05771). Kind of experiment: Selectivity interaction (Kinase screening (Nanosyn)) EUB0000604a PRKCB.
For experiment [9], the target named is Casein kinase I isoform alpha (Homo sapiens, UniProt P48729). As to the kind of experiment: Selectivity interaction (KinomeScan (DiscoverX)) EUB0000229b CSNK1A1. The settings on record: at 10 µM.
Experiment [10] has as its target T3, SNF-related serine/threonine-protein kinase (Homo sapiens) (UniProt Q9NRH2).
T3 sequence (whole entry): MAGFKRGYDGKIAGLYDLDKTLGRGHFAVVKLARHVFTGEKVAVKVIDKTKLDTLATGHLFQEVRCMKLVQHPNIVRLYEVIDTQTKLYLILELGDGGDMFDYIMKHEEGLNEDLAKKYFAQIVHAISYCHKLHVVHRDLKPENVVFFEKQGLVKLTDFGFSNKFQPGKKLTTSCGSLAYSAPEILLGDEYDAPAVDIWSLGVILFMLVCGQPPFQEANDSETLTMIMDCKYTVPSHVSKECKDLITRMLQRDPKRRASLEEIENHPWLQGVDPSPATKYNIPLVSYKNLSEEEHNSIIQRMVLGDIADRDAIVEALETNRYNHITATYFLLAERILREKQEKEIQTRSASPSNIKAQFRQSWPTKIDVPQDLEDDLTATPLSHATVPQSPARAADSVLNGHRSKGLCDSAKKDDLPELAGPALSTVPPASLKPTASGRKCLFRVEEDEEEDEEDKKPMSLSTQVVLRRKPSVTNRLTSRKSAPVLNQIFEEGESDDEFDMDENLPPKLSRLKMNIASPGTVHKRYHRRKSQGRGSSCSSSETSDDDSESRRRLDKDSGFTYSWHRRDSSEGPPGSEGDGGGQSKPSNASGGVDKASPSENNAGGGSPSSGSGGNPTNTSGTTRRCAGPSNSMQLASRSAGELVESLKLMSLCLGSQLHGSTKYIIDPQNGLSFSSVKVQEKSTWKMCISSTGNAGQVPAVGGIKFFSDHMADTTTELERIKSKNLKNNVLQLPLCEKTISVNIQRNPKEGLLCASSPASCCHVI
As to the kind of experiment: Selectivity interaction (KinomeScan (DiscoverX)) EUB0001619a SNRK. The settings on record: at 1 µM.

The target in experiment [11] is Tyrosine-protein kinase CSK (Homo sapiens) (UniProt P41240). Kind of experiment: Selectivity interaction (Kinase panel (literature)) EUB0001199aCl CSK. The settings on record: at 1 µM.

For 9 compounds, % of inhibition, % of control and % binding results are on record in ChEMBL document CHEMBL5465560, “Selectivity Literature for EUbOPEN Chemogenomic Library” (2024).

Each structure is given as a SMILES string.

Sequence of Death-associated protein kinase 1 (P53355 whole entry, looked up): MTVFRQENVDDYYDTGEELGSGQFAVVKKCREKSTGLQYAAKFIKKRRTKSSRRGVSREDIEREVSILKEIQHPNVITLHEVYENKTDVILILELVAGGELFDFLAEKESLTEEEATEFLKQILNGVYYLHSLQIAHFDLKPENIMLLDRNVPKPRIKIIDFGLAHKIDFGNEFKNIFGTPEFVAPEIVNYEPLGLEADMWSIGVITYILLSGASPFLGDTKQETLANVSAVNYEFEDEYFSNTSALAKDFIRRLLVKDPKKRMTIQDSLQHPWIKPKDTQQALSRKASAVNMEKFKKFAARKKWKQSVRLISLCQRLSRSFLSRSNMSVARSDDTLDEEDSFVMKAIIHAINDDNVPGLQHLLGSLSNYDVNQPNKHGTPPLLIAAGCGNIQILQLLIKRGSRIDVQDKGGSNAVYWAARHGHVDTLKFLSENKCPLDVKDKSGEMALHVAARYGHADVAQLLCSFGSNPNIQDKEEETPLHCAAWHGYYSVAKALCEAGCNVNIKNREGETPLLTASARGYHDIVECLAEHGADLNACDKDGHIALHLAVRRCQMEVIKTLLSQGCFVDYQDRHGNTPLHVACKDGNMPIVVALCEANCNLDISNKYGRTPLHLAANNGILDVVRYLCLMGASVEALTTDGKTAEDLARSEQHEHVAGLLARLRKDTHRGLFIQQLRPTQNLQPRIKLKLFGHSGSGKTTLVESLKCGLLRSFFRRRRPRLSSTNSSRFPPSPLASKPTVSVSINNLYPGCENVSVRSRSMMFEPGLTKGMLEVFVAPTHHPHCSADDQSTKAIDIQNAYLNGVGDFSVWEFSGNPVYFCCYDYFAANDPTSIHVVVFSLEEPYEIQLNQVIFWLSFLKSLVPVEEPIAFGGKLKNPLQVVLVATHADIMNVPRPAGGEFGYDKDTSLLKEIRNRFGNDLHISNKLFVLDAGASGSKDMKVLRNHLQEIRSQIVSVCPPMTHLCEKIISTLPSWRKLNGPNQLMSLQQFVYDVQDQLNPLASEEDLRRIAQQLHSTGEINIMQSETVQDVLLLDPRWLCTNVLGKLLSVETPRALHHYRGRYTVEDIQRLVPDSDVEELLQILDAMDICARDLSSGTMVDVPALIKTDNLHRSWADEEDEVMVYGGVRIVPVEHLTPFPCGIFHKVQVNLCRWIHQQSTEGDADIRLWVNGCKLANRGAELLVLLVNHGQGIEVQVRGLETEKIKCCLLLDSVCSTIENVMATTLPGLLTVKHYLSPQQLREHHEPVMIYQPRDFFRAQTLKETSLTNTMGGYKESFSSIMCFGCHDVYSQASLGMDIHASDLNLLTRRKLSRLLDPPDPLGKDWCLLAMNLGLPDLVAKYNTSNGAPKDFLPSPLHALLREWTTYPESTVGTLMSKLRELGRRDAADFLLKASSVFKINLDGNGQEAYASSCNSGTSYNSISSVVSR
Sequence of Ribosomal protein S6 kinase alpha-5 (Homo sapiens) (O75582 whole entry, looked up): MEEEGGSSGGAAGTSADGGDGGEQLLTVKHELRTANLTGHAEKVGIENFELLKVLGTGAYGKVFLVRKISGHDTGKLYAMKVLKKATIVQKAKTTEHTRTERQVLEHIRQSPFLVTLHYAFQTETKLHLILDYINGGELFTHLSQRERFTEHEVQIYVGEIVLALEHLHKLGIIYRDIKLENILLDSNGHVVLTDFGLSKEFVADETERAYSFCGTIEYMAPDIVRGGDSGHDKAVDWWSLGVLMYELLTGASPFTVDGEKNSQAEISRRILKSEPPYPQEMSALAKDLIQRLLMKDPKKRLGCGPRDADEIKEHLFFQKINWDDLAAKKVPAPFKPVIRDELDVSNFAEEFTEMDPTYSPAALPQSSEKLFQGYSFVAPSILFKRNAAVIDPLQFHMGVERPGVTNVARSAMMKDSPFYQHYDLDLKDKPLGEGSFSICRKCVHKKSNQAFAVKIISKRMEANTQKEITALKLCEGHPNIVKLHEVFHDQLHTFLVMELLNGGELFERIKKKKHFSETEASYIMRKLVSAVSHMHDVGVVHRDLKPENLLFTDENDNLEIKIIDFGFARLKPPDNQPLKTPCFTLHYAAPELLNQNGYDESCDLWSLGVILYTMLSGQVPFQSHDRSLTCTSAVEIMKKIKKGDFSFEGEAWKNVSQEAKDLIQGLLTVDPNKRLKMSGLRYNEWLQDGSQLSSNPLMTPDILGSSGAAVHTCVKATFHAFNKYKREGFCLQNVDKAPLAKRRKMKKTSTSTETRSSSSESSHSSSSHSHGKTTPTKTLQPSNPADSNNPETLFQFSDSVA
Sequence of Protein kinase C beta type (P05771 2-671 limits assumed): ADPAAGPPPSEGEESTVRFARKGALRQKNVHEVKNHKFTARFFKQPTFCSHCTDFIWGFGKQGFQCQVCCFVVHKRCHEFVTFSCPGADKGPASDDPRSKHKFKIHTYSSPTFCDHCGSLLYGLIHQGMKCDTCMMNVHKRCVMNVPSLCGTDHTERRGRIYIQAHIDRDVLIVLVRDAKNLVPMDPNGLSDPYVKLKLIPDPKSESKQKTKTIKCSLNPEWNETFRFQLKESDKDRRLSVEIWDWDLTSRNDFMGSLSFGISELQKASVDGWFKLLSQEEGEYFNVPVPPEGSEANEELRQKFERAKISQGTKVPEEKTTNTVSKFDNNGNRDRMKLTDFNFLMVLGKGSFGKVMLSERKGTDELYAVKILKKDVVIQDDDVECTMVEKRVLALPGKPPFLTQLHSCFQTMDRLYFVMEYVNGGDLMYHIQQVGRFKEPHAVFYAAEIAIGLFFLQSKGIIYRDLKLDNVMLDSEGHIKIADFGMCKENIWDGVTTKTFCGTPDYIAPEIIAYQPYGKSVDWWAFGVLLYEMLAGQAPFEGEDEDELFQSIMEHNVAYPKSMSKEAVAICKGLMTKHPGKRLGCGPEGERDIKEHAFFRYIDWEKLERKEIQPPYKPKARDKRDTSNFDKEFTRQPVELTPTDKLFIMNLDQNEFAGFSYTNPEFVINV
Sequence of SRSF protein kinase 2 (Homo sapiens) (P78362 whole entry, looked up): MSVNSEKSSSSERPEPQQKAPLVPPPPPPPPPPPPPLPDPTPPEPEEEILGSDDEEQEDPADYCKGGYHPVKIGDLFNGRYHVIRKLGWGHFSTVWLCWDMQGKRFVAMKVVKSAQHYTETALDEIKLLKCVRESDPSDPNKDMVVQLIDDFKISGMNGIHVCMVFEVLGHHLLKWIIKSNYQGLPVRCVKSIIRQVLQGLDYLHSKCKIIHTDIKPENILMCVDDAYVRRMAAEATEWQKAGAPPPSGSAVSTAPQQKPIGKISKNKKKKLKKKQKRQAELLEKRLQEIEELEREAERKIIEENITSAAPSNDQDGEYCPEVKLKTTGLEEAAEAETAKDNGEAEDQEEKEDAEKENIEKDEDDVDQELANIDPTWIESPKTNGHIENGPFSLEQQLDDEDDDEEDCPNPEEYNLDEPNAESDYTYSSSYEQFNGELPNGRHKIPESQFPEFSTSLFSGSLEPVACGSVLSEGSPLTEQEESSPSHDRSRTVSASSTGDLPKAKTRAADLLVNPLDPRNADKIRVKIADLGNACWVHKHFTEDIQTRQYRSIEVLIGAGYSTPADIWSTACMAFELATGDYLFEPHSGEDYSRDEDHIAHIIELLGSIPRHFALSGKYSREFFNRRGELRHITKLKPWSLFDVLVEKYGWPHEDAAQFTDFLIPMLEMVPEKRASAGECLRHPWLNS
Sequence of Tyrosine-protein kinase CSK (Homo sapiens) (P41240 2-450 limits assumed): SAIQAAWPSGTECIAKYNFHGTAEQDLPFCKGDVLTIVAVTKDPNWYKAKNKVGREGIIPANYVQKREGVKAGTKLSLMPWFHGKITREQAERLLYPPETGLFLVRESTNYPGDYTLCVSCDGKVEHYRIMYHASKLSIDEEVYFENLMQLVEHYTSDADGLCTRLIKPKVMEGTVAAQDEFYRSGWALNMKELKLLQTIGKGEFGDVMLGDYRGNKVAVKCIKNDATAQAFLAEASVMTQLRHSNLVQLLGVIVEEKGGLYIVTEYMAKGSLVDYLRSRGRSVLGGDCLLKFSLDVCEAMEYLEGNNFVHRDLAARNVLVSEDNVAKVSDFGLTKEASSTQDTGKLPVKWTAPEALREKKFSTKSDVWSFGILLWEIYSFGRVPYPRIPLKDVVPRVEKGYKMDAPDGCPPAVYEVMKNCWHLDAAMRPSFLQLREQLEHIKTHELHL
Sequence of Casein kinase I isoform alpha (P48729 2-337 limits assumed): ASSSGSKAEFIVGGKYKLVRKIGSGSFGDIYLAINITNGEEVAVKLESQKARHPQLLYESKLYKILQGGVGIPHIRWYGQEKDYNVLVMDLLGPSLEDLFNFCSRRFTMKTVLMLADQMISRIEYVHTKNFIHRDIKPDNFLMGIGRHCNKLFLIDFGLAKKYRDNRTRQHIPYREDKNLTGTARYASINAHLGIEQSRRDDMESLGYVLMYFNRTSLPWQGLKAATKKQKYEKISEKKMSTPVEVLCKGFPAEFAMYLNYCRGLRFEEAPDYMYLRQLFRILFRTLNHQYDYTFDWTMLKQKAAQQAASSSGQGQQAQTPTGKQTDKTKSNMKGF

For `Cc1ccc(-c2ccc3c(ccc4sc5c(c43)NC[C@@H](C)NC5=O)n2)cn1`, the % of inhibition in [1] was found to be 8%; in experiment [2], 11%. In the case of `Cc1cc([C@@H](C)Nc2ccccc2C(=O)O)c2nc(N3CCOCC3)cc(=O)n2c1` [AZD-6482], the % of control in experiment [3] amounted to 85%.

As for `CN(C)C/C=C/C(=O)Nc1ccc(C(=O)N2CCCC(Nc3ncc(Cl)c(-c4c[nH]c5ccccc45)n3)C2)cc1` (stereo unspecified), the % of control in experiment [4] worked out at 80%; in [5], 86%. For the compound `COc1cc(Nc2nc(C)cc(-c3cnn4nc(OC)ccc34)n2)cc(C(F)(F)F)c1`, in experiment [6], the % of control amounted to 100%.

In experiment [7], `Cc1cc(F)c(C(=O)Nc2cccc(-c3nncn3C(C)C)n2)cc1-n1cnc(C2CC2)c1` had a % of control of 80%. Turning to `Cc1cnc(Nc2ccc(F)cc2Cl)nc1-c1c[nH]c(C(=O)N[C@H](CO)c2cccc(Cl)c2)c1`, the % of inhibition in experiment [8] came to 4%. For the compound `COc1cc(N(C)c2ccnc3ccc(C(F)(F)F)cc23)cc(OC)c1OC`, the % binding in experiment [9] came to 90%. For `N#Cc1cccc(-c2c[nH]c3ncnc(N4CCOCC4)c23)c1`, the % of control in experiment [10] came to 100%.

As to `CN1Cc2nccc(-c3cn(C)nc3-c3ccc(F)cc3)c2C1=O`, the % of inhibition in experiment [11] is -3%.
